Holding throughout (assay type): physicochemical
Series [1] is described as follows: Gravimetric Vapour Sorption (GVS). The procedure: Sorption isotherms were obtained using a SMS DVS Intrinsic moisture sorption analyser, controlled by DVS Intrinsic Control software v1.0.1.2 (or v 1.0.1.3). The sample temperature was maintained at 25° C. by the instrument controls. The humidity was controlled by mixing streams of dry and wet nitrogen, with a total flow rate of 200 ml/min The relative humidity was measured by a calibrated Rotronic probe (dynamic range of 1.0-100% RH), located near the sample. The weight change, (mass relaxation) of the sample as a function of % RH was constantly monitored by the microbalance (accuracy±0.005 mg). Typically 5-20 mg of sample was placed in a tared mesh stainless steel basket under ambient conditions. The sample was loaded and unloaded at 40% RH and 25° C. (typical room conditions). A moisture sorption isotherm was performed as outlined below (2 scans giving 1 complete cycle or 4 scans giving 2 complete cycles). The standard isotherm was performed at 25° C. at 10% RH intervals over a 0-90% RH range. Data analysis was undertaken in Microsoft Excel using DVS Analysis Suite v6.2 (or 6.1 or 6.0). Table 2 details the method parameters for SMS DVS intrinsic experiments.
The sample was recovered after completion of the isotherm and re-analysed by XRPD.

Series [2] in a line: Static stability / storage of solid forms, checked by XRPD. The procedure: The samples were analysed by XRPD and, where appropriate, by DSC, TGA, VT-XRPD and ^1H NMR. Static stability at 25° C./96% RH and 40° C./75% RH was also investigated.
This material was analysed by XRPD TGA, GVS, and mDSC. Static stability experiments were carried out under ambient conditions and also at 25° C./96% RH and 40° C./75% RH. Finally this material was used as input material for the polymorphism screen (see Table 6).

Test in series [3]: as above
This is another data set of the same source.

A short description of another series: XRPD after ball milling.
The next series is described as follows: Aqueous solubility.
Series [4] in a line: Drying of solid forms, form checked by XRPD. Conditions: for Filtration and air drying for 30 min: air drying 30 min.

The record followed here is patent US20150111864A1, “CRYSTALLINE FORM OF A BETA-LACTAMASE INHIBITOR” (Cubist Pharmaceuticals, Inc., priority 2013, published 2015).

SMILES strings stand for the structures. “Also recorded” adds a separate entry of the source. Structures can show the parent of a compound that is named as a salt.

Turning to `NCCCc1nnc([C@@H]2CC[C@@H]3CN2C(=O)N3OS(=O)(=O)O)o1` [Amorphous Solid, (2S,5R)-2-(5-(3-aminopropyl)-1,3,4-oxadiazol-2-yl)-7-oxo-1,6-diazabicyclo[3.2.1]octan-6-yl hydrogen sulfate], the “GVS (water uptake, in words)” value in series [1] (25° C., resulting solid was Form 5 by XRPD) was “Rapid uptake of water from 40-60%”. Further, the “Static Stability - 25° C./96% RH: time to conversion to Form 5” value in series [2] (25° C./96% RH) was “Conversion to Form 5 within 15 minutes”. Further, in series [2] (40° C./75% RH), the “Static Stability - 40° C./75% RH: time to conversion to Form 5” value is “Conversion to Form 5 within 15 minutes”. Moreover, in series [2] (ambient conditions, XRPD), the “Static Stability - ambient” value is “Form 5 peaks observed after 36 days (although”.
Consider `NCCCc1nnc([C@@H]2CC[C@@H]3CN2C(=O)N3OS(=O)(=O)O)o1` [Form 5, (2S,5R)-2-(5-(3-aminopropyl)-1,3,4-oxadiazol-2-yl)-7-oxo-1,6-diazabicyclo[3.2.1]octan-6-yl hydrogen sulfate], for which the “Storage in vacuum oven at 25° C.” value in series [3] (25° C., after 5 days) is recorded as “No change in form or crystallinity”. The “Storage in vacuum oven at 50° C.” value in series [3] (50° C., after 24 h) is “Sample almost completely amorphous”. In series [1] (after GVS isotherm), the “XRPD post GVS” value is reported as “Form 5. No change in crystallinity”. For the same compound, the “GVS Mass change” value in series [1] (from 0-90% RH, 25° C.) is listed as “Mass change of 9.73% from 0-90% RH”. Further, the “XRPD after ball milling (20 min)” value in “XRPD after ball milling” is listed as “No change in form but loss”. In addition, the “Stability relative to the amorphous solid form and other crystalline forms” value in series [2] is reported as “more stable than other crystalline forms; also recorded: improved stability”. Also, the “Change of XRPD pattern over time (FIG. 2)” value in series [2] (25° C. and 40% relative humidity, t=0 and t=2 days) is “little to no change”. For the same compound, the “Storage at 25° C./96% RH for 1 week” value in series [2] (25° C./96% RH, 1 week) is on record as “No change in form or crystallinity”. Also, in series [2] (40° C./75% RH, 1 week), the “Storage at 40° C./75% RH for 1 week” value is listed as “No change in form or crystallinity”. Also, the “Relative stability of crystalline forms at ambient conditions” value in series [2] (ambient conditions (25° C. and 40% RH)) is given as “most stable crystalline form”. In addition, the “Aqueous solubility (24 hrs at 25°): solid form of residue” value in the series “Aqueous solubility” is “Residue was Form 5”. The “Aqueous solubility (24 hrs at 25°)” value in the series “Aqueous solubility” (pH 4.85) is 13.1 mg/ml (pH 4.85).
Consider `NCCCc1nnc([C@@H]2CC[C@@H]3CN2C(=O)N3OS(=O)(=O)O)o1` [Form 6, (2S,5R)-2-(5-(3-aminopropyl)-1,3,4-oxadiazol-2-yl)-7-oxo-1,6-diazabicyclo[3.2.1]octan-6-yl hydrogen sulfate], for which the “Filtration and air drying for 30 min” value in series [4] is given as “No change in form”. In addition, the “Storage at 25° C./96% RH for 24 h” value in series [2] (25° C./96% RH) is given as “Conversion to Form 5”. In addition, in series [2] (40° C./75% RH), the “Storage at 40° C./75% RH for 24 h” value is given as “Conversion to Form 5”.
On to `NCCCc1nnc([C@@H]2CC[C@@H]3CN2C(=O)N3OS(=O)(=O)O)o1` [Form 7, (2S,5R)-2-(5-(3-aminopropyl)-1,3,4-oxadiazol-2-yl)-7-oxo-1,6-diazabicyclo[3.2.1]octan-6-yl hydrogen sulfate], for which the “Filtration and air drying for 30 min” value in series [4] is on record as “No change in form”. The “Storage at 25° C./96% RH for 24 h” value in series [2] (25° C./96% RH) is “Conversion to Form 5”. In addition, the “Storage at 40° C./75% RH for 24 h” value in series [2] (40° C./75% RH) was “Conversion to Form 5”. For the same compound, the “Storage at ambient conditions for 24 h” value in series [2] is on record as “No change in form”.
Consider `NCCCc1nnc([C@@H]2CC[C@@H]3CN2C(=O)N3OS(=O)(=O)O)o1` [Form 9, (2S,5R)-2-(5-(3-aminopropyl)-1,3,4-oxadiazol-2-yl)-7-oxo-1,6-diazabicyclo[3.2.1]octan-6-yl hydrogen sulfate], for which the “Drying in at 5 mmHg/25° C. overnight” value in series [4] (5 mmHg, 25° C., overnight) was “No change in form”. Also, the “Storage at 25° C./96% RH for 24 h” value in series [2] (25° C./96% RH) is “Conversion to Form 5”. In addition, the “Storage at 40° C./75% RH for 24 h” value in series [2] (40° C./75% RH) was “Conversion to Form 5”. In addition, in series [2], the “Storage at ambient conditions for 24 h” value is given as “No change in form”.
